One compound from patent US3968251A, “Arylacetylene compounds as antithrombotic agents” (Eli Lilly and Company, priority 1975, dated 1976) can be followed below.

One may read the inhibition as the change of the read-out against control, counted positive when it falls.

This assay concerns collagen-induced platelet aggregation. Description: collagen-induced platelet aggregation after oral dosing (method of Herrmann, et al., 139, 548 (1972)). The class given is in vivo, Guinea pig. The settings on record: for inhibition at 25 mg/kg: Cavia porcellus, Platelet, po, oral 25 mg/kg, guinea pig, read-out: Percent Inhibition of Collagen-Induced Platelet Aggregation. On the procedure:
Exp. Biol. Med., 139, 548 (1972).
The effect of (2'-fluoro-4-biphenyl)acetylene on collagen-induced platelet aggregation was tested by the method of Hermann, et al., Proc. Soc. Exp. Biol. Med., 139, 548 (1972). Guinea pigs weighing 300-400 g, were used. The compound was administered by oral dosing. At time intervals after dosing, blood samples were obtained for assessing platelet function. The collagen used to induce platelet aggregation was prepared from a stock solution obtained by solubilizing Sigma bovine Achilles Tendon with acetic acid. […] Each day 0.4 ml of 1 M aqueous hydroxide was added to a 1.0-ml aliquot of the stock solution, followed by further dilution with saline to yield the appropriate dilutions for use.

SMILES strings stand for the structures. Where two headings read alike, the source gives them in different places.

As to `C#Cc1ccc(-c2ccccc2F)cc1` [(2'-fluoro-4-biphenyl)acetylene], for the setting “20 hours after oral dosing”, the “duration of activity (in words)” value is listed as “activity still was observed 20 hours after dosing, indicating a long duration of activity”. The inhibition at 25 mg/kg runs as follows: (1.5 h, 90 min. after dosing, collagen dilution 1:4) 13%; (1.5 h, 90 min. after dosing, collagen dilution 1:16, significant at P=0.05) 35%; (1.5 h, 90 min. after dosing, collagen dilution 1:32, significant at P=0.01) 81%; (3 h, 3 hrs. after dosing, collagen dilution 1:4, significant at P=0.01) 44%; (3 h, 3 hrs. after dosing, collagen dilution 1:16, significant at P=0.01) 69%; (3 h, 3 hrs. after dosing, collagen dilution 1:32, significant at P=0.01) 86%. The inhibition at 25 mg/kg (6 h, 6 hrs. after dosing, collagen dilution 1:4) was found to be 16%; the inhibition at 25 mg/kg (6 h, 6 hrs. after dosing, collagen dilution 1:16, significant at P=0.05) amounted to 42%; the inhibition at 25 mg/kg (6 h, 6 hrs. after dosing, collagen dilution 1:32, significant at P=0.01) was 49%; the inhibition at 25 mg/kg (20 h, 20 hrs. after dosing, collagen dilution 1:4) is 18%; the inhibition at 25 mg/kg (20 h, 20 hrs. after dosing, collagen dilution 1:16, significant at P=0.01) was found to be 62%; the inhibition at 25 mg/kg (20 h, 20 hrs. after dosing, collagen dilution 1:32, significant at P=0.01) was 95%. In addition, the “inhibition of collagen-induced platelet aggregation (in words)” value (after oral dosing) is recorded as “active inhibitor of collagen-induced platelet aggregation”. Besides, under “highest collagen concentration, after oral dosing”, the “inhibition at highest collagen concentration (in words)” value was “inhibited only at three hours after dosing”. The “inhibition of weakest collagen challenge (in words)” value (weakest collagen challenge, after oral dosing) is “markedly inhibited at all time intervals after oral dosing”.
